One experiment deals with human SOS1 (Homo sapiens (Human), UniProt Q07889). As to the kind of experiment: Surface Plasmon Resonance (SPR) SOS1 Binding Assay. The settings on record: biotinylated SOS1 (res. 564-1049), Biacore 8K, 25° C., kinetic or steady state fit, 1:1 binding; read-out: hSOS1 KD. The procedure: Binding to SOS1 was measured using a SPR assay with purified recombinant human SOS1 substrate (res. 564-1049 with N-terminal Avi tag; purified and biotinylated based on Hillig, et al., Proc Natl Acad Sci USA (2019); 116(7):2551-2560). SPR measurements were performed on a Biacore 8K SPR instrument (GE Healthcare, Sweden). Assays were performed at 25° C. using Series S SA sensor chips pre-coated with streptavidin (GE Healthcare, Cat. BR100531). Biotinylated SOS1 diluted in sample buffer (20 mM Tris HCI, 150 mM NaCl, 1 mM DTT, 0.05% TWEEN 20, 1 mM MgCh, pH 8.0) was captured to one flow cell of the chip to about 3,000 resonance units (RU) using sample buffer supplemented with 5% DMSO as a running buffer. Serial dilutions of the assayed compounds in the running buffer at 100, 50 or 0.5 µM were injected for 60 s at a flow rate of 30 µL/min and association phases were recorded. Dissociation of the samples was monitored for 600 s. Data processing was performed using Biacore Insight Software (Biacore, GE Healthcare). Sensorgrams recorded on a SA flow cell without captured protein were subtracted from sensorgrams recorded on the SOS1 surface. Blank injections of running buffer were used for double referencing and solvent correction was applied to all sample sensorgrams to correct for buffer mismatches. KDS were estimated using a kinetic or steady state, where applicable, fitting model describing a reversible equilibrium with 1:1 binding between SOS1 and the compound.

Experiment [1] concerns the target SOS1:KRAS (G12C) interaction (Homo sapiens (Human), UniProt Q07889). The experiment can be described thus: SOS1 KRas(G12C) FRET Assay. Type of experiment: binding. The settings on record: 0.5 nM His10-SOS1 (res. 564-1049), 2.5 nM GST-KRAS G12C (res. 1-169), 2 hrs at RT. The method, boiled down: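 GST-KRAS G12C (res. 1-169) at 2.5 nM and His10-SOS1 (res. 564-1049) at 0.5 nM, final, in PBS with 0.1% BSA, 5 mM MgCl2, 100 mM KF, 5 mM DTT and 0.5% DMSO. After 2 h at RT, FRET read at 665/615 nm and normalized to DMSO and no-SOS1 controls. IC50 by non-linear regression.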

As to `CO[C@H]1CN(C)CC[C@H]1Nc1cc(=O)n(C2(C(F)F)CC2)cc1C(=O)N[C@H](C)c1cccc(C(F)F)c1F` [Example 153, N-((R)-1-(3-(difluoromethyl)-2-fluorophenyl)ethyl)-1-(1-(difluoromethyl)cyclopropyl)-4-(((3S,4R)-3-methoxy-1-methylpiperidin-4-yl)amino)-6-oxo-1,6-dihydropyridine-3-carboxamide], the Kd on human SOS1 was 0.025 µM. In experiment [1], this compound showed an IC50 of 0.0584 µM.
In the case of `Cc1c([C@@H](C)NC(=O)c2cn(C3CCOCC3)c(=O)cc2N[C@@H]2CCN(C)C2)cccc1C(F)(F)F` [Example 3, N-((R)-1-(2-methyl-3-(trifluoromethyl)phenyl)ethyl)-4-(((R)-1-methylpyrrolidin-3-yl)amino)-6-oxo-1-(tetrahydro-2H-pyran-4-yl)-1,6-dihydropyridine-3-carboxamide], the Kd on human SOS1 was 0.016 µM. 0.0412 µM corresponded to half-maximal inhibition in experiment [1] (IC50).
Consider “N-((R)-1-(2-fluoro-3- (trifluoromethyl)phenyl)et hyl)-4-(((1R,5S,6s)-3- methyl-3- azabicyclo[3.1.0]hexan-6- yl)amino)-6-oxo-1-(1- (trifluoromethyl)cycloprop yl)-1,6-dihydropyridine-3- carboxamide [Example 120]”, for which the Kd at human SOS1 amounted to 0.024 µM. For the same compound, the half-maximal inhibitory concentration (IC50) in experiment [1] came to 0.0357 µM.
For the compound `C[C@@H](NC(=O)c1cn([C@H]2CC2(C)C)c(=O)cc1N[C@H]1[C@@H]2CN(C)C[C@@H]21)c1cccc(C(F)F)c1F` [Example 95, N-((R)-1-(3-(difluoromethyl)-2-fluorophenyl)ethyl)-1-((S)-2,2-dimethylcyclopropyl)-4-(((lR,5S,6s)-3-methyl-3-azabicyclo[3.1.0]hexan-6-yl)amino)-6-oxo-1,6-dihydropyridine-3-carboxamide], the Kd on human SOS1 worked out at 0.012 µM. Besides, in experiment [1], the IC50 is 0.0216 µM.
The corresponding values for `C[C@@H](NC(=O)c1cn([C@@]2(C)CCOC2)c(=O)cc1NC1CCN(C)CC1)c1cccc(C(F)F)c1F` (single isomer, unassigned) [Example 47] are 0.002 µM and 0.0045 µM.
On to `Cc1c([C@@H](C)NC(=O)c2cn(C3CCOCC3)c(=O)cc2N[C@@H]2CCCN(C)C2)cccc1C(F)(F)F` [Example 5, N-((R)-1-(2-methyl-3-(trifluoromethyl)phenyl)ethyl)-4-(((R)-1-methylpiperidin-3-yl)amino)-6-oxo-1-(tetrahydro-2H-pyran-4-yl)-1,6-dihydropyridine-3-carboxamide], for which the Kd on human SOS1 worked out at 0.02 µM. Moreover, it took 0.0355 µM to reach half-maximal inhibition in experiment [1] (IC50).
As for `C[C@@H](NC(=O)c1cn(C2(C(F)F)CC2)c(=O)cc1N[C@@H]1CCNC[C@@H]1F)c1cccc(C(F)F)c1F` (single isomer, unassigned) [Example 69], the Kd at human SOS1 was 0.013 µM. Besides, 0.0174 µM corresponded to half-maximal inhibition in experiment [1] (IC50).
The corresponding values for `C[C@@H](NC(=O)c1cn([C@@H]2CCOC[C@H]2F)c(=O)cc1NC1CCN(C)CC1)c1cccc(C(F)F)c1F` [Example 79, N-((R)-1-(3-(difluoromethyl)-2-fluorophenyl)ethyl)-1-((3S,4R)-3-fluorotetrahydro-2H-pyran-4-yl)-4-((1-methylpiperidin-4-yl)amino)-6-oxo-1,6-dihydropyridine-3-carboxamide] are 0.002 µM and 0.0037 µM.
With `[2H]C([2H])([2H])N1C[C@@H]2[C@H](C1)[C@H]2Nc1cc(=O)n(C23CC(C2)C3)cc1C(=O)N[C@H](C)c1cccc(C(F)F)c1F` [Example 91, 1-(bicyclo[1.1.1]pentan-1-yl)-N-((R)-1-(3-(difluoromethyl)-2-fluorophenyl)ethyl)-4-(((1R,5S,6s)-3-(methyl-d3)-3-azabicyclo[3.1.0]hexan-6-yl)amino)-6-oxo-1,6-dihydropyridine-3-carboxamide], the dissociation constant Kd on human SOS1 was found to be 0.012 µM. In experiment [1], this compound returned a half-inhibitory concentration (IC50) of 0.0139 µM.
With `C[C@@H](NC(=O)c1cn(C2(C(F)F)CC2)c(=O)cc1NC[C@@H]1CC2CCN1CC2)c1cccc(C(F)F)c1F` [Example 85, N-((R)-1-(3-(difluoromethyl)-2-fluorophenyl)ethyl)-1-(1-(difluoromethyl)cyclopropyl)-6-oxo-4-((((S)-quinuclidin-2-yl)methyl)amino)-1,6-dihydropyridine-3-carboxamide], on human SOS1, the Kd came out at 0.012 µM. This compound registered an IC50 in experiment [1] of 0.0261 µM.
Turning to `C[C@@H](NC(=O)c1cn(C23CC(C(F)(F)F)(C2)C3)c(=O)cc1N[C@H]1[C@@H]2CN(C)C[C@@H]21)c1cccc(C(F)F)c1F` [Example 106, N-((R)-1-(3-(difluoromethyl)-2-fluorophenyl)ethyl)-4-(((1R,5S,6s)-3-methyl-3-azabicyclo[3.1.0]hexan-6-yl)amino)-6-oxo-1-(3-(trifluoromethyl)bicyclo[1. 1.1]pentan-1-yl)-1,6-dihydropyridine-3-carboxamide], at human SOS1, the dissociation constant Kd stood at 0.019 µM. Further, the 50% inhibitory concentration (IC50) in experiment [1] was determined as 0.0168 µM.
Turning to `C[C@@H](NC(=O)c1cn(C23CC(C2)C3)c(=O)cc1N[C@@H]1[C@@H]2CC[C@H]1CN(C)C2)c1cccc(C(F)F)c1F` (single isomer, unassigned) [Example 134], the Kd at human SOS1 came out at 0.005 µM. Further, the IC50 in experiment [1] turned out to be 0.009 µM.
As to `Cc1c([C@@H](C)NC(=O)c2cn(C3CCOCC3)c(=O)c(C#N)c2NC2CCN(C)CC2)cccc1C(F)(F)F` [Example 20, (R)-5-cyano-N-(1-(2-methyl-3-(trifluoromethyl)phenyl)ethyl)-4-((1-methylpiperidin-4-yl)amino)-6-oxo-1-(tetrahydro-2H-pyran-4-yl)-1,6-dihydropyridine-3-carboxamide], the Kd at human SOS1 is 0.0104 µM. In experiment [1], this compound showed an IC50 of 0.0227 µM.
For `C[C@@H](NC(=O)c1cn(C23CC(C2)C3)c(=O)cc1N[C@H]1[C@@H]2CC[C@H]1CN(C)C2)c1cccc(C(F)F)c1F` (single isomer, unassigned) [Example 135], at human SOS1, the Kd stood at 0.031 µM. Besides, the IC50 in experiment [1] was 0.0521 µM.
Turning to `Cc1c([C@@H](C)NC(=O)c2cn(C3CCOCC3)c(=O)cc2N[C@H]2CC[C@H](O)C2)cccc1C(F)(F)F` [Example 13, 4-(((1S,3S)-3-hydroxycyclopentyl)amino)-N-((R)-1-(2-methyl-3-(trifluoromethyl)phenyl)ethyl)-6-oxo-1-(tetrahydro-2H-pyran-4-yl)-1,6-dihydropyridine-3-carboxamide], on human SOS1, the dissociation constant (Kd) came to 0.091 µM. Besides, in experiment [1], the concentration for half-maximal inhibition (IC50) turned out to be 0.155 µM.
For `COC1(CNc2cc(=O)n(C3CCOCC3)cc2C(=O)N[C@H](C)c2cccc(C(F)(F)F)c2C)CN(C)C1` [Example 29, (R)-4-(((3-methoxy-1-methylazetidin-3-yl)methyl)amino)-N-(1-(2-methyl-3-(trifluoromethyl)phenyl)ethyl)-6-oxo-1-(tetrahydro-2H-pyran-4-yl)-1,6-dihydropyridine-3-carboxamide], in that order: 0.011 µM and 0.0191 µM.
Regarding `C[C@@H](NC(=O)c1cn(C2(C(F)F)CC2)c(=O)cc1NC1CCN(C)CC1)c1cccc(C(F)(F)F)c1F` [Example 52, (R)-1-(1-(difluoromethyl)cyclopropyl)-N-(1-(2-fluoro-3-(trifluoromethyl)phenyl)ethyl)-4-((1-methylpiperidin-4-yl)amino)-6-oxo-1,6-dihydropyridine-3-carboxamide], the dissociation constant (Kd) on human SOS1 worked out at 0.006 µM. The compound also yielded an IC50 in experiment [1] of 0.0136 µM.
Turning to `C[C@@H](NC(=O)c1cn([C@H]2CCC2(F)F)c(=O)cc1N[C@H]1[C@@H]2CN(C)C[C@@H]21)c1cccc(C(F)F)c1F` (single isomer, unassigned) [Example 104], on human SOS1, the Kd came to 0.024 µM. The IC50 in experiment [1] is 0.0454 µM.
As for `C[C@@H](NC(=O)c1cn([C@H]2C[C@@H]2C(F)F)c(=O)cc1N[C@H]1[C@@H]2CN(C)C[C@@H]21)c1cccc(C(F)F)c1F` [Example 113, N-((R)-1-(3-(difluoromethyl)-2-fluorophenyl)ethyl)-1-((1S,2S)-2-(difluoromethyl)cyclopropyl)-4-(((1R,5S,6s)-3-methyl-3-azabicyclo[3.1.0]hexan-6-yl)amino)-6-oxo-1,6-dihydropyridine-3-carboxamide], the Kd on human SOS1 was 0.006 µM. The compound further displayed an IC50 in experiment [1] of 0.0105 µM.
Take `C[C@@H](NC(=O)c1cn(C2CC3(C2)CC(F)(F)C3)c(=O)cc1N[C@H]1CCN(C)C[C@H]1F)c1cccc(C(F)F)c1F` [Example 127, N-((R)-1-(3-(difluoromethyl)-2-fluorophenyl)ethyl)-1-(6,6-difluorospiro[3 .3]heptan-2-yl)-4-(((3R,4S)-3-fluoro-1-methylpiperidin-4-yl)amino)-6-oxo-1,6-dihydropyridine-3-carboxamide]: on human SOS1, the Kd is 0.003 µM. Further, 0.003 µM corresponded to half-maximal inhibition in experiment [1] (IC50).

(Values after patent publication US20230348424A1, “HETEROCYCLIC COMPOUNDS AND METHODS OF USE” (Schrödinger, Inc., priority 2022, published 2023).)
